Reference: paper PMC12128972, “TYRA-300, an FGFR3-selective inhibitor, promotes bone growth in two FGFR3-driven models of chondrodysplasia” (JCI Insight, 2025)
Where “and” joins values, the source holds several entries; their conditions need not be identical. Equal values may be shown once.

How the values were obtained:
[1] = system: growth plate chondrocytes of Fgfr3^Y367C/+ mice; test: Fgfr3Y367C/+ mice: histology and immunohistochemistry of distal femur growth plate (H&E, collagen type X, PCNA, HZC count); type: in vivo, mouse
Experimental: To understand the effects of TYRA-300 treatment on the growth plate cartilage and chondrocytes and the mechanism through which TYRA-300 increases bone growth, histological analysis of the femurs of Fgfr3^Y367C/+ mice was performed. […] Treatment also facilitated angiogenesis, deposition of bone matrix, and resorption of the cartilage. In addition, the overall structure of the growth plate was more organized after treatment with TYRA-300. […] The organization of the hypertrophic zone, with HZCs organized in columns, appeared similar in TYRA-300–treated Fgfr3^Y367C/+ mice and Fgfr3^+/+ mice. Within the hypertrophic zone of TYRA-300–treated mice, the HZCs were larger than in vehicle-treated mice.
The right femur and lumbar vertebrae segment L4–L6 were collected and fixed in 4% paraformaldehyde, decalcified with ethylenediaminetetraacetic acid (EDTA) 0.5 M (pH 8) for 2 or 3 weeks, and embedded in paraffin. Serial paraffin sections of 5 μm were stained with hematoxylin, eosin, and Safranin O. For immunohistochemistry, sections were labeled with antibodies against collagen type X (BIOCYC ref. [1]-CO097-05-RUO, 1:100 dilution), collagen type I (Novotec, 20151, dilution 1:1,000), pERK (Cell Signaling, 4370S, dilution 1:1,000), and PCNA (Abcam, GR3195972-6, 1:500 dilution) using the Dako Envision Kit. Images were captured with an Olympus PD70-IX2-UCB microscope and CellSens software (Olympus Life Science Solutions). Cells were counted using ImageJ software (NIH, Laboratory for Optical Computational Instrumentation).

[2] = system: Fgfr3^Y367C/+ mouse model, which mimics the phenotype of ACH; test: Fgfr3Y367C/+ mice: growth, body weight and long bone length (calipers, x-ray); type: in vivo; parameters: nasoanal length, individual mice / tail length, individual mice: unit not given here; details: for nasoanal length, individual mice / tail length, individual mice / body weight, individual mice: 1.2 mg/kg/d s.c. from day 1
Experimental: In this study, Fgfr3^Y367C/+ mice were administered TYRA-300 daily by subcutaneous injection at a dose of 1.2 mg/kg for 15 days beginning at 1 day of age to evaluate the effects on growth, bone length, and key skeletal parameters, compared with those of vehicle-treated Fgfr3^Y367C/+ mice. Results were also compared with those from vehicle-treated Fgfr3^+/+ (wild-type) mice. […] In Fgfr3^Y367C/+ mice, the […], resulting in disproportionate long bones.
Tg-CMV^Cre/+/Fgfr3^Y367C/+ mice were tattooed and assigned to treatment groups within each litter at 1 day of age (wild-type mice, Fgfr3^Y367/+ mice treated with vehicle, or Fgfr3^Y367/+ mice treated with 1.2 mg/kg TYRA-300). TYRA-300 was dissolved in aqueous HCl (3.5 mM) containing 5% dimethyl sulfoxide (DMSO) and administered subcutaneously to Fgfr3^Y367/+ mice (n = 8) for 15 days. The vehicle was administered to wild-type (n = 10) or Fgfr3^Y367/+ mice (n = 10) for 15 days. Subcutaneous administration was used for this study rather than oral gavage due to the reduced size of the mice. Clinical observations, nasoanal length and tail length measurements were performed every 3 days, and body weights were collected daily.
Whole body x-ray images were taken of all animals by Faxitron specimen radiography MX-20 (Faxitron X-Ray LLC) following terminal sacrifice. The length of the L4–L6 lumbar vertebra segment was also measured for each animal using calipers, and the height of the L5 vertebral body was measured from Alcian blue/Sirius red images. Long bones and the skull were then excised, and their dimensions were measured using calipers (VWRi819-0013, VWR International). The transverse and sagittal diameters of the foramen magnum were also measured using calipers for the Fgfr3^Y367/+ model, and measured using the μCT images for the Fgfr3^N534K/+ model.

[3] = 1.2 mg/kg s.c. daily for 15 days
[4] = 1.2 mg/kg s.c. daily for 15 days from 1 day of age
[5] = Fgfr3Y367C/+ mice + TYRA-300, individual animal values, in mm (unit assumed)

C[C@@H](Oc1ccc2[nH]nc(-c3ccc(N4CC5(C4)CN(S(C)(=O)=O)C5)nc3)c2c1)c1c(Cl)cncc1Cl [TYRA-300]
expression of PCNA in distal femoral growth plate [1, 3]: a more well-defined positive zone within the growth plate
number of HZCs within the ROI vs vehicle ([1]; 1.2 mg/kg s.c. daily for 15 days, distal femur): significant decrease
type X collagen staining in the HZCs ([1]; present study): partial restoration
increase in length of the femur vs vehicle [2, 3]: 22.55%
increase in length of the humerus vs vehicle [2, 3]: 15.52%
increase in length of the tibia vs vehicle [2, 3]: 33.01%
increase in length of the ulna vs vehicle [2, 3]: 23.51%
increase in nasoanal length vs vehicle-treated mutant mice [2, 4]: 17.88%
increase in tail length vs vehicle-treated mutant mice [2, 4]: 25.10%
increase in body weight vs vehicle-treated mice ([2]; 1.2 mg/kg s.c. daily, end of treatment): 52.9%
nasoanal length, individual mice ([2]; day 1): 29 (4×) and 30 and 28 and 31 (2×)
tail length, individual mice ([2]; day 1): 12 and 13 (6×) and 14
body weight, individual mice ([2]; day 1, in g (unit assumed)): 1.56 and 1.58 and 1.46 and 1.33 and 1.47 and 1.4 and 1.37 and 1.6
body weight, individual mice ([2]; day 2, in g (unit assumed)): 1.72 and 1.94 and 1.84 and 1.42 and 1.55 and 1.46 and 1.53 and 2.01
body weight, individual mice ([2]; day 3, in g (unit assumed)): 1.9 and 2.33 and 2.12 and 1.64 and 1.76 and 1.63 and 1.84 and 2.4
nasoanal length, individual mice ([2]; day 4): 32 and 34 (2×) and 35 and 31 and 33 (3×)
tail length, individual mice ([2]; day 4): 17 (3×) and 18 and 19 and 16 (2×) and 15
body weight, individual mice ([2]; day 4, in g (unit assumed)): 2.07 and 2.76 and 2.5 and 1.89 and 2.29 and 1.86 and 2.18 and 2.91
body weight, individual mice ([2]; day 5): 2.2 (2×) and 3.12 and 2.97 and 2.23 and 2.52 and 2.53 and 3.27
body weight, individual mice ([2]; day 6, in g (unit assumed)): 2.34 and 3.32 and 3.31 and 2.62 and 2.85 and 2.61 and 2.97 and 3.58
nasoanal length, individual mice ([2]; day 7): 35 and 40 and 39 and 34 and 36 (4×)
tail length, individual mice ([2]; day 7): 25 and 23 (3×) and 21 (2×) and 24 and 22
body weight, individual mice ([2]; day 7, in g (unit assumed)): 2.5 and 3.76 and 3.67 and 3.01 and 3.07 and 3 and 3.31 and 4
body weight, individual mice ([2]; day 8, in g (unit assumed)): 2.88 and 4.38 and 4.13 and 3.59 and 3.58 and 3.33 and 3.74 and 4.2
body weight, individual mice ([2]; day 9): 3.25 and 4.59 (2×) and 4.2 and 3.92 and 3.86 and 3.97 and 4.66
nasoanal length, individual mice ([2]; day 10): 40 (3×) and 42 (3×) and 38 and 41
tail length, individual mice ([2]; day 10): 25 and 28 and 27 (3×) and 26 (2×) and 29
body weight, individual mice ([2]; day 10, in g (unit assumed)): 3.5 and 5.05 and 4.73 and 4.46 and 4.52 and 4.17 and 4.41 and 4.98
body weight, individual mice ([2]; day 11, in g (unit assumed)): 3.7 and 5.46 and 5.06 and 4.65 and 4.64 and 4.44 and 4.99 and 5.57
body weight, individual mice ([2]; day 12, in g (unit assumed)): 4.17 and 6.04 and 5.26 and 5.13 and 4.96 and 4.59 and 5.3 and 5.5
nasoanal length, individual mice ([2]; day 13): 41 and 46 (2×) and 44 (2×) and 43 and 42 and 45
tail length, individual mice ([2]; day 13): 31 (4×) and 35 (3×) and 32
body weight, individual mice ([2]; day 13, in g (unit assumed)): 4.57 and 6.33 and 5.41 and 5.39
nasoanal length, individual mice ([2]; day 16): 42 and 47 (2×) and 48 and 46 (2×) and 44 and 50
tail length, individual mice ([2]; day 16): 33 (2×) and 36 (4×) and 34 and 35
average normalization of long bone length toward wild-type ([2]; ACH model, 1.2 mg/kg): 26%
source data of Figure 2E (sheet "2E"): long bone length, bone not given [2, 5]: 7.38 and 6.94 and 7.67 and 7.62 and 7.75 and 7.48 and 7.35 and 7.46
source data of Figure 2F (sheet "2F"): long bone length, bone not given [2, 5]: 6.52 and 6.4 and 6.85 and 6.87 and 5.9 and 6.57 and 6.71
source data of Figure 2G (sheet "2G"): long bone length, bone not given [2, 5]: 6.5 and 6.23 and 7.03 and 6.67 and 6.08 and 7.07 and 6.74 and 6.82
source data of Figure 2H (sheet "2H"): long bone length, bone not given [2, 5]: 5.78 and 5.71 and 6.17 and 5.84 and 6.2 and 5.91 and 5.85 and 6.02
bone growth compared with low-dose infigratinib (0.5 mg/kg) ([2]; TYRA-300 1.2 mg/kg, 15 days starting at 1 day of age, comparator data ref 28, 29): more bone growth than low-dose infigratinib
